Data taken from patent publication US20250129078A1, “ERBB2 INHIBITORS” (Cogent Biosciences, Inc., priority 2023, published 2025).
Counter-ions that a name gives are not always drawn.

Experiments:
EGFR wild type = EGFR wild type (Homo sapiens (Human), UniProt P00533); assay: ErbB cellular phosphorylation assay (phospho-EGFR ELISA), HEK-293 cells expressing EGFR wild type, EGF stimulated; assay type: cell-based; conditions: 1 h treatment
Experimental: HEK-293 cells were engineered to constitutively express ErbB2 mutant L755S or EGFR wild type (constructs obtained from GenScript, Piscataway, NJ). Cells were seeded in poly-D-lysine coated, 96-well plates at a density of 50,000 cells/well in complete medium (DMEM supplemented with 10% fetal bovine serum and G418) and incubated for 24 h at 37° C., 5% CO2 prior to treatment. Cells were treated with compound using three-fold dilutions at final concentrations ranging from […] for 1 h at 37° C., 5% CO2. EGFR-WT cells were stimulated with 500 ng/mL recombinant human EGF (R&D Systems, 236-EG) for an additional 5 min. After compound incubation, medium was removed from the plate, and cells were lysed in buffer containing protease and phosphatase inhibitors ([…]). Cell lysates were analyzed by enzyme-linked immunosorbent assay (ELISA). The ELISAs were performed to measure phosphorylated ErbB2 or phosphorylated EGFR levels, respectively (R&D Systems, DYC-1768, Human Phospho-ErbB2 DuoSet ELISA; DYC1095, Human Phospho-EGFR DuoSet IC ELISA) according to the manufacturer's instructions. Absorbance was measured at 450 nm using a BioTek Cytation 5 plate reader (Agilent, Santa Clara, CA) and IC50 values were calculated using a 4-parameter fit.

EGFR WT = EGFR WT (Homo sapiens (Human), UniProt P00533); assay: ErbB enzyme assay (CisBio HTRF-KinEASE-TK), EGFR WT; assay type: biochemical; conditions: ATP at Km (25 μM), 1 h incubation
Method in brief: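 Three-fold DMSO serial dilutions were added to kinase reactions and incubated 1 h at room temperature. Quench used 62.5 nM Sa-XL665 plus 0.25×TK-Ab-Cryptate in detection buffer, followed by another 1 h. Substrate phosphorylation was then measured by dual-wavelength HTRF.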

ErbB2 V777L = ErbB2 V777L (Homo sapiens (Human), UniProt P04626, V777L); assay: ErbB enzyme assay (CisBio HTRF-KinEASE-TK), ErbB2 V777L; assay type: biochemical
Method in brief: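 HTRF KinEASE-TK tyrosine-kinase read-out of substrate phosphorylation after a final 1 h at ambient temperature, from the 655/620 nm emission ratio.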

Sequence of ErbB2 V777L (P04626 23-1255 V777L): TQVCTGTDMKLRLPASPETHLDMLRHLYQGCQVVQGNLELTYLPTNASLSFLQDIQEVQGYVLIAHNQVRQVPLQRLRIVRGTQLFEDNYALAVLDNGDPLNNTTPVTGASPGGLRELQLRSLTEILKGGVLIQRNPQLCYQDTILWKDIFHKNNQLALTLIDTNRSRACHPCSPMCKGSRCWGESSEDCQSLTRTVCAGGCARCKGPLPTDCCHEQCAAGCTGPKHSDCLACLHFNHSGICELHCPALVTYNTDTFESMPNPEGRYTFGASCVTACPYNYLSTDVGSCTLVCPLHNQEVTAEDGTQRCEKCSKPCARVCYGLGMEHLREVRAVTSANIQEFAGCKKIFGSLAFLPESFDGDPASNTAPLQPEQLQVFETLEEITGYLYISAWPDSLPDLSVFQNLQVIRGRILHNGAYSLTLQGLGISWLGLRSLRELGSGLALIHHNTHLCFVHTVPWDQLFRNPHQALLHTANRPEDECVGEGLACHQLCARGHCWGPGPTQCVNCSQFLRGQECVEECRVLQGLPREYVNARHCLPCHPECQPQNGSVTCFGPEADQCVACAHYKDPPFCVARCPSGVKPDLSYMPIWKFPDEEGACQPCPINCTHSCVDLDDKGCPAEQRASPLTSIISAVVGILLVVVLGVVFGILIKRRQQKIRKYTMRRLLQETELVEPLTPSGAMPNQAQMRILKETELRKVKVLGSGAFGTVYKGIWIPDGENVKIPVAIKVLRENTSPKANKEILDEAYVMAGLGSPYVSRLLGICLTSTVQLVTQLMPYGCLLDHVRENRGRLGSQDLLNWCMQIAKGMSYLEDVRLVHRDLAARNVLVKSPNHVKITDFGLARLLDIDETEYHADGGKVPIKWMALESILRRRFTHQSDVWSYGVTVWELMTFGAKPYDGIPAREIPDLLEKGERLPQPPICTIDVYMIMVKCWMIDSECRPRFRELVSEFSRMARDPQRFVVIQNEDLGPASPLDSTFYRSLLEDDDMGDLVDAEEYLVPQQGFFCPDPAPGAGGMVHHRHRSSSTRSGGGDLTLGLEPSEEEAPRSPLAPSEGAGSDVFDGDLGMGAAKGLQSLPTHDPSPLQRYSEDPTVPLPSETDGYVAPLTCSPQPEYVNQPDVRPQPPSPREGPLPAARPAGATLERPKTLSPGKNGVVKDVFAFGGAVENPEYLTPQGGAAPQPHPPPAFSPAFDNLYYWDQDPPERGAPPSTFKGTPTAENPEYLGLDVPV
Sequence of EGFR WT (P00533 25-1210): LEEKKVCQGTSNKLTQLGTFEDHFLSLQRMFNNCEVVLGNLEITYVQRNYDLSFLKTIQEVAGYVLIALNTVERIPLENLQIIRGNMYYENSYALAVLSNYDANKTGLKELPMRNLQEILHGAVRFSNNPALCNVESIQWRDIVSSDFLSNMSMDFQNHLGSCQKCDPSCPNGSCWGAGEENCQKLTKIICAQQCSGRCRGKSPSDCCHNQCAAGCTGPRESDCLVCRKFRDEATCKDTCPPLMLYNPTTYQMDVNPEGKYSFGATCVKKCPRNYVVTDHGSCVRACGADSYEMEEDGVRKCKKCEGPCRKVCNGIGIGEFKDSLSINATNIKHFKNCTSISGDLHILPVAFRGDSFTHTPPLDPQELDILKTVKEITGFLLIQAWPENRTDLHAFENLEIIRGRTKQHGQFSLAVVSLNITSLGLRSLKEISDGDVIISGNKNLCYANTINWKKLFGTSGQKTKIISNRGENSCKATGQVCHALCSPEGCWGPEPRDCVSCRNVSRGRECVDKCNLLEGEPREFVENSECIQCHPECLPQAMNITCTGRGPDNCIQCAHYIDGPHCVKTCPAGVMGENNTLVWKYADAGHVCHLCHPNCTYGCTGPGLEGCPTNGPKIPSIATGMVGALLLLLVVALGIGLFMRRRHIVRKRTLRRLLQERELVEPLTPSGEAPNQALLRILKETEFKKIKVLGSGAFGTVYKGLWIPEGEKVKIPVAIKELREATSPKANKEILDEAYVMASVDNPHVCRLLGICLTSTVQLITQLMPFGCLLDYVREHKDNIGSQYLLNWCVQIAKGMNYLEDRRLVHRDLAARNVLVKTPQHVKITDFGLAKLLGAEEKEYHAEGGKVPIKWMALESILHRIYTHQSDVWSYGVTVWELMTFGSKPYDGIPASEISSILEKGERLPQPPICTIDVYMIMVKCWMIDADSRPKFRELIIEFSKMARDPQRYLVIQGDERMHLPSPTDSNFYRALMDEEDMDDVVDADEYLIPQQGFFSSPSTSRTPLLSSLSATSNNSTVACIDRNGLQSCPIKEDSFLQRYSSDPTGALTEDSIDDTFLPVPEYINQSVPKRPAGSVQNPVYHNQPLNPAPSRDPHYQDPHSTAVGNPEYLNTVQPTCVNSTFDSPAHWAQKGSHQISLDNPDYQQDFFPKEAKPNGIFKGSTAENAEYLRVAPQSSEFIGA
Sequence of EGFR wild type (P00533 25-1210): as above

IC50 (EGFR wild type) | IC50 (EGFR WT) | IC50 (ErbB2 V777L) | SMILES
1000 to 5000 nM | < 50 nM | – | C=CC(=O)N1CCN(c2ncc3ncnc(Nc4ccc(Oc5cc(F)c6c(c5)nnn6C)c(C)c4)c3n2)CC1 [Compound 4, 1-(4-(8-((4-((7-fluoro-1-methyl-1H-benzo[d][1,2,3]triazol-5-yl)oxy)-3-methylphenyl)amino)pyrimido[5,4-d]pyrimidin-2-yl)piperazin-1-yl)prop-2-en-1-one]
≥ 5000 nM | 100 to 500 nM | – | C=CC(=O)N1CCN(c2ncc3ncnc(Nc4cc(C)c(Oc5ccc6c(c5)ncn6C)cc4OC)c3n2)CC1 [Compound 11, 1-(4-(8-((2-methoxy-5-methyl-4-((1-methyl-1H-benzo[d]imidazol-5-yl)oxy)phenyl)amino)pyrimido[5,4-d]pyrimidin-2-yl)piperazin-1-yl)prop-2-en-1-one 2,2,2-trifluoroacetate]
1000 to 5000 nM | < 50 nM | – | C=CC(=O)N1CCN(c2ncc3ncnc(Nc4ccc(Oc5ccc6c(c5)ncn6C(F)F)c(C)c4F)c3n2)CC1 [Compound 21, 1-(4-(8-((4-((1-(difluoromethyl)-1H-benzo[d]imidazol-5-y1)oxy)-2-fluoro-3-methylphenyl)amino)pyrimido[5,4-d]pyrimidin-2-yl)piperazin-1-yl)prop-2-en-1-one]
≥ 5000 nM | 100 to 500 nM | – | C=CC(=O)N1CCN(c2ncc3ncnc(Nc4ccc(Oc5ccc6c(c5)nnn6C)c(C)c4)c3n2)C[C@@H]1CO [Compound 25, (R)-1-(2-(hydroxymethyl)-4-(8-((3-methyl-4-((1-methyl-1H-benzo[d][1,2,3]triazol-5-yl)oxy)phenyl)amino)pyrimido[5,4-d]pyrimidin-2-y1)piperazin-1-yl)prop-2-en-1-one]
≥ 5000 nM | 100 to 500 nM | – | C=CC(=O)N1C2CCC1CN(c1ncc3ncnc(Nc4cc(C)c(Oc5cc(F)c6c(c5)ncn6C)cc4OC)c3n1)C2 [Compound 42, 1-(3-(8-((4-((7-fluoro-1-methyl-1H-benzo[d]imidazol-5-yl)oxy)-2-methoxy-5-methylphenyl)amino)pyrimido[5,4-d]pyrimidin-2-y1)-3,8-diazabicyclo[3.2.1]octan-8-yl)prop-2-en-1-one]
1000 to 5000 nM | 100 to 500 nM | – | C=CC(=O)N1C2CCC1CN(c1ccc3ncnc(Nc4ccc(Oc5ccc6c(c5)nnn6C)c(C)c4)c3n1)C2 [Compound 70, 1-(3-(4-((3-methyl-4-((1-methyl-1H-benzo[d][1,2,3]triazol-5-yl)oxy)phenyl)amino)pyrido[3,2-d]pyrimidin-6-yl)-3,8-diazabicyclo[3.2.1]octan-8-yl)prop-2-en-1-one]
≥ 5000 nM | 100 to 500 nM | – | C=CC(=O)N1CCN(c2ccc3ncnc(Nc4ccc(Oc5ccc6c(c5)nnn6C)c(C)c4)c3n2)[C@@H](C)C1 [Compound 90, (S)-1-(3-methyl-4-(4-((3-methyl-4-((1-methyl-H-benzo[d][1,2,3]triazol-5-yl)oxy)phenyl)amino)pyrido[3,2-d]pyrimidin-6-yl)piperazin-1-yl)prop-2-en-1-one 2,2,2-trifluoroacetate]
≥ 5000 nM | < 50 nM | – | C=CC(=O)N1CCN(c2ccc3ncnc(Nc4ccc(Oc5ccc6c(c5)nnn6C)c(C)c4F)c3n2)CC1 [Compound 95, 1-(4-(4-((2-fluoro-3-methyl-4-((1-methyl-1H-benzo[d][1,2,3]triazol-5-yl)oxy)phenyl)amino)pyrido[3,2-d]pyrimidin-6-yl)piperazin-1-yl)prop-2-en-1-one]
≥ 5000 nM | 100 to 500 nM | – | C=CC(=O)N1CC=C(c2ccc3ncnc(Nc4ccc(Oc5ccc6c(c5)nnn6C)c(C)c4)c3n2)CC1 [Compound 109, 1-(4-(4-((3-methyl-4-((1-methyl-1H-benzo[d][1,2,3]triazol-5-yl)oxy)phenyl)amino)pyrido[3,2-d]pyrimidin-6-yl)-3,6-dihydropyridin-1(2H)-yl)prop-2-en-1-one trifluoroacetate]
– | 100 to 500 nM | 100 to 500 nM | C=CC(=O)N1C2CCCC1CC(c1ccc3ncnc(Nc4ccc(Oc5ccc6c(c5)nnn6C)c(C)c4)c3n1)C2 (stereo not drawn) [Compound 395, 1-(3-(4-((3-methyl-4-((1-methyl-1H-benzo[d][1,2,3]triazol-5-yl)oxy)phenyl)amino)pyrido[3,2-d]pyrimidin-6-yl)-9-azabicyclo[3.3.1]nonan-9-yl)prop-2-en-1-one trifluoroacetate]
– | 100 to 500 nM | 50 to 100 nM | C=CC(=O)N1C2COCC1CC(c1ccc3ncnc(Nc4ccc(Oc5ccc6c(c5)nnn6C)c(C)c4)c3n1)C2 (stereo not drawn) [Compound 396, 1-(7-(4-((3-methyl-4-((1-methyl-1H-benzo[d][1,2,3]triazol-5-yl)oxy)phenyl)amino)pyrido[3,2-d]pyrimidin-6-y1)-3-oxa-9-azabicyclo[3.3.1]nonan-9-yl)prop-2-en-1-one trifluoroacetate]
– | 500 to 1000 nM | 100 to 500 nM | C=CC(=O)N1C2CCC1CC(c1ccc3ncnc(Nc4ccc(Oc5ccc6c(c5)nnn6C)c(C)c4)c3n1)C2 (stereo not drawn) [Compound 397, 1-(3-(4-((3-methyl-4-((1-methyl-1H-benzo[d][1,2,3]triazol-5-yl)oxy)phenyl)amino)pyrido[3,2-d]pyrimidin-6-y1)-8-azabicyclo[3.2.1]octan-8-yl)prop-2-en-1-one trifluoroacetate]
– | 100 to 500 nM | 50 to 100 nM | C=CC(=O)N1CCCC(c2ccc3ncnc(Nc4ccc(Oc5ccc6c(c5)nnn6C)c(C)c4)c3n2)C1 (stereo not drawn) [Compound 398, 1-(3-(4-((3-methyl-4-((1-methyl-1H-benzo[d][1,2,3]triazol-5-yl)oxy)phenyl)amino)pyrido[3,2-d]pyrimidin-6-yl)piperidin-1-yl)prop-2-en-1-one]
– | 50 to 100 nM | 100 to 500 nM | C=CC(=O)NC1CCC(c2ccc3ncnc(Nc4ccc(Oc5ccc6c(c5)nnn6C)c(C)c4)c3n2)CC1 (stereo not drawn) [Compound 400, N-(4-(4-((3-methyl-4-((1-methyl-1H-benzo[d][1,2,3]triazol-5-yl)oxy)phenyl)amino)pyrido[3,2-d]pyrimidin-6-yl)cyclohexyl)acrylamide]
– | 100 to 500 nM | 50 to 100 nM | C=CC(=O)N1C2CCCC1CC(c1ccc3ncnc(Nc4cc(C)c(Oc5ccc6c(c5)nnn6C)cc4OC)c3n1)C2 (stereo not drawn) [Compound 401, 1-(3-(4-((2-methoxy-5-methyl-4-((1-methyl-1H-benzo[d][1,2,3]triazol-5-yl)oxy)phenyl)amino)pyrido[3,2-d]pyrimidin-6-yl)-9-azabicyclo[3.3.1]nonan-9-yl)prop-2-en-1-one trifluoroacetatexc]
– | 100 to 500 nM | 100 to 500 nM | C=CC(=O)N1C2CCCC1CC(c1ccc3ncnc(Nc4ccc(Oc5ccc6c(c5)nnn6C)c(C)c4F)c3n1)C2 (stereo not drawn) [Compound 402, 1-(3-(4-((2-fluoro-3-methyl-4-((1-methyl-1H-benzo[d][1,2,3]triazol-5-yl)oxy)phenyl)amino)pyrido[3,2-d]pyrimidin-6-yl)-9-azabicyclo[3.3.1]nonan-9-yl)prop-2-en-1-one trifluoroacetate]
– | 100 to 500 nM | 100 to 500 nM | C=CC(=O)N1CC=C(c2ncc3ncnc(Nc4ccc(Oc5ccn6ncnc6c5)c(C)c4F)c3n2)C[C@@H]1C [Compound 404, (S)-1-(4-(8-((4-([1,2,4]triazolo[1,5-a]pyridin-7-yloxy)-2-fluoro-3-methylphenyl)amino)pyrimido[5,4-d]pyrimidin-2-yl)-2-methyl-3,6-dihydropyridin-1(2H)-yl)prop-2-en-1-one]
– | 500 to 1000 nM | 100 to 500 nM | C=CC(=O)N1C2C=C(c3ccc4ncnc(Nc5ccc(Oc6ccc7c(c6)nnn7C)c(C)c5)c4n3)CC1CCC2 (stereo not drawn) [Compound 405, 1-(3-(4-((3-methyl-4-((1-methyl-1H-benzo[d][1,2,3]triazol-5-yl)oxy)phenyl)amino)pyrido[3,2-d]pyrimidin-6-yl)-9-azabicyclo[3.3.1]non-2-en-9-yl)prop-2-en-1-one]
– | 100 to 500 nM | 50 to 100 nM | C=CC(=O)N1C2C=C(c3ccc4ncnc(Nc5ccc(Oc6ccc7c(c6)nnn7C)c(C)c5)c4n3)CC1CC2 (stereo not drawn) [Compound 409, 1-(3-(4-((3-methyl-4-((1-methyl-1H-benzo[d][1,2,3]triazol-5-yl)oxy)phenyl)amino)pyrido[3,2-d]pyrimidin-6-yl)-8-azabicyclo[3.2.1]oct-2-en-8-yl)prop-2-en-1-one trifluoroacetate]
– | 100 to 500 nM | 100 to 500 nM | C=CC(=O)NC1CC=C(c2ccc3ncnc(Nc4ccc(Oc5ccc6c(c5)nnn6C)c(C)c4)c3n2)CC1 (stereo not drawn) [Compound 412, N-(4-(4-((3-methyl-4-((1-methyl-1H-benzo[d][1,2,3]triazol-5-yl)oxy)phenyl)amino)pyrido[3,2-d]pyrimidin-6-yl)cyclohex-3-en-1-yl)acrylamide]
– | 500 to 1000 nM | 500 to 1000 nM | C=CC(=O)N1C2C=C(c3ccc4ncnc(Nc5ccc(Oc6ccc7c(c6)nnn7C)c(C)c5F)c4n3)CC1CCC2 (stereo not drawn) [Compound 414, 1-(3-(4-((2-fluoro-3-methyl-4-((1-methyl-1H-benzo[d][1,2,3]triazol-5-yl)oxy)phenyl)amino)pyrido[3,2-d]pyrimidin-6-yl)-9-azabicyclo[3.3.1]non-2-en-9-yl)prop-2-en-1-one]
